# Read-outs that look alike come from different tables or passages of the source.
# Columns and labels:
# A549 cells = format: cell-based, human
# Protocol: (§1) A MTT [3-(4,5-dimethylthiazolyl-2)-2,5-diphenyltetrazolium bromide] (Sigma, St Louis, Mo.) assay was performed to determine cell proliferation. Briefly, CL1-5, A549, PC-9, H1650, H1975 and IEC-18 cells were plated in 96-well plates at a density of 5×10^3 cells/well. […] MTT solution to a final concentration in the culture medium 0.5 mg/ml was then added to the wells. After a further 1.5 h of incubation, the medium was removed and DMSO was added to the plates.
# CL1-5 cells = format: cell-based, human
# Protocol: as §1
# H1650 cells = format: cell-based, human
# Protocol: as §1
# H1975 cells [1] = format: cell-based, human
# Protocol: as §1
# H1299 cells = format: cell-based, human
# IEC-18 cells = assay: MTT assay, IEC-18 intestinal epithelial cells; format: cell-based, rat
# Protocol: as §1
# [2] = test system: EGFR, pEGFR, AKT, pAKT in CL1-5 cells; assay: Western blot EGFR signaling, CL1-5; format: cell-based, human
# [3] = test system: EGFR, pEGFR, AKT, pAKT in A549 cells; assay: Western blot EGFR signaling, A549; format: cell-based, human
# [4] = test system: pAKT, cyclin D1 in H1975 cells; assay: Western blot EGFR signaling, H1975; format: cell-based, human; details: H1975, curcumin 1-20 μM, EGF 20 ng/ml
# [5] = test system: pEGFR, pAKT in H1299 cells; assay: Western blot EGFR signaling, H1299; format: cell-based, human; details: gefitinib 1 μM alone, curcumin 10 and 15 μM alone, or gefitinib 1 μM + curcumin 15 μM
# EGFR mRNA in CL1-5 cells = assay: Real-time quantitative RT-PCR of EGFR; format: cell-based, human; details: CL1-5, 1-20 μM, 24 h
# [6] = test system: EGFR protein in lung adenocarcinoma cells; assay: EGFR degradation (Western blot) and ubiquitination (immunoprecipitation); format: cell-based; details: without MG132
# [7] = test system: CL1-5 lung adenocarcinoma xenograft; assay: CL1-5 xenograft tumor growth; format: in vivo, SCID mice; details: control 638.55
# H1975 cells [8] = details: 15 μM curcumin without gefitinib
# [9] = Adverse gastrointestinal effects and survival in xenograft study
# [10] = test system: active-p38 in IEC-18 cells; assay: Western blot active-p38, IEC-18; format: cell-based, rat
# [11] = test system: active-p38 in CL1-5 cells; assay: Western blot active-p38, CL1-5; format: cell-based, human; details: CL1-5, gefitinib 0-20 μM
# [12] = SCID, mouse, in vivo, po, 3 weeks
smiles,measurement,setting,value
"COc1cc(/C=C/C(=O)/C=C(O)/C=C/c2ccc(O)c(OC)c2)ccc1O [curcumin, diferuloylmethane]",cell proliferation (FIG. 4A),A549 cells,slight inhibition of cell proliferation
same,proliferation (FIG. 1A right),"A549 cells; A549, curcumin alone",inhibited by curcumin in a concentration-dependent manner
same,cell proliferation (FIG. 4A),CL1-5 cells,slight inhibition of cell proliferation
same,proliferation (FIG. 1A right),"CL1-5 cells; CL1-5, curcumin alone",inhibited by curcumin in a concentration-dependent manner
same,cell proliferation (FIG. 4A),H1650 cells,slight inhibition of cell proliferation
same,proliferation (FIG. 1A right),"H1650 cells; H1650, curcumin alone",inhibited by curcumin in a concentration-dependent manner
same,cell proliferation (FIG. 4A),H1975 cells [1],slight inhibition of cell proliferation
same,proliferation (FIG. 1A right),"H1975 cells [1]; H1975, curcumin alone",inhibited by curcumin in a concentration-dependent manner
same,cell proliferation (FIG. 4A),H1299 cells,slight inhibition of cell proliferation
same,proliferation (FIG. 1A right),"H1299 cells; H1299, curcumin alone",inhibited by curcumin in a concentration-dependent manner
same,rescue from toxic effect of gefitinib (cell survival),IEC-18 cells,rescue the cells from this toxic effect of gefitinib
same,"EGFR, pEGFR, AKT, and pAKT protein expression","[2]; CL1-5, curcumin 1-20 μM, EGF 20 ng/ml","reduce EGFR, pEGFR, AKT, and pAKT protein expression"
same,pEGFR and pAKT (FIG. 4B),"[2]; CL1-5, gefitinib 1 μM alone, curcumin 10 and 15 μM alone, or gefitinib 1 μM + curcumin 15 μM",minimal suppressive effect
same,"EGFR, pEGFR, AKT, and pAKT protein expression","[3]; A549, curcumin 1-20 μM, EGF 20 ng/ml","reduce EGFR, pEGFR, AKT, and pAKT protein expression"
same,pEGFR and pAKT (FIG. 4B),"[3]; A549, gefitinib 1 μM alone, curcumin 10 and 15 μM alone, or gefitinib 1 μM + curcumin 15 μM",minimal suppressive effect
same,AKT phosphorylation,[4],not altered
same,level of cyclin D1,[4],significantly reduced
same,pEGFR and pAKT (FIG. 4B),[5],minimal suppressive effect
same,EGFR mRNA expression,EGFR mRNA in CL1-5 cells,reduce EGFR mRNA expression in a concentration-dependent manner
same,EGFR protein expression,[6],inhibit the EGFR protein expression in a dose-dependent manner
same,average tumor size at the end of the study,[7]; curcumin 1 g/kg orally once daily,354.91 mm^3
same,cells in apoptosis,H1975 cells [8],about 90%
same,levels of EGFR and AKT in the tumors,CL1-5 tumor tissue; Western blot of tumor tissue,decreased
same,PCNA marker in tumor tissue,CL1-5 tumor tissue; immunohistochemical staining,decreased
same,cell apoptosis in tumor tissue (TUNEL),"CL1-5 tumor tissue; in situ cell death detection, vs control (and gefitinib only)",induced cell apoptosis
same,morphology / full length of the intestine,[9],no obvious differences
"COc1cc2ncnc(Nc3ccc(F)c(Cl)c3)c2cc1OCCCN1CCOCC1 [gefitinib, N-(3-Chloro-4-fluoro-phenyl)-7-methoxy-6-(3-morpholin-4-ylpropoxy)quinazolin-4-amine]",cell proliferation (FIG. 4A),A549 cells,slight inhibition of cell proliferation
same,IC25 for IEC-18 cell,IEC-18 cells; IEC-18,30 µM
same,IEC-18 cell survival,"IEC-18 cells; gefitinib 30 and 40 μM, 24 h",significantly reduce IEC-18 cell survival
same,average tumor size at the end of the study,[7]; gefitinib 120 mg/kg orally once daily,138.32 mm^3
same,active-p38,"[10]; IEC-18, gefitinib 0-20 μM",significant increased in a dose dependent manner
same,p38 activation,[11],did not elevate the p38 activation
same,survival rate,[12],33%
same,body weight,[9],dramatic body weight lost
same,diarrhea,[9],obviously diarrhea side effect
same,morphology / full length of the intestine,[9],shorter and thinner
COc1cc(/C=C/C(=O)C(C(C)=O)C(O)/C=C/c2ccc(O)c(OC)c2)ccc1O (centres unmarked) [LL68],protection against gefitinib-induced intestinal cell death (FIG. 10),IEC-18 cells,protective effect to reduce gefitinib-induced intestinal cell death
CCOC(=O)CC/C(C(=O)/C=C/c1ccc(O)c(OC)c1)=C(O)\C=C\c1ccc(O)c(OC)c1 [JC-15],protection against gefitinib-induced intestinal cell death (FIG. 10),IEC-18 cells,protective effect to reduce gefitinib-induced intestinal cell death
"Cc1ccc(-n2nc(C(C)(C)C)cc2NC(=O)Nc2ccc(OCCN3CCOCC3)c3ccccc23)cc1 [BIRB 796, reference compound]",rescue from toxic effect of gefitinib (cell survival),"IEC-18 cells; IEC-18, curcumin 5 μM, BIRB 796 10 nM, gefitinib 30 and 40 μM",rescue the cells from this toxic effect of gefitinib
same,active-p38 expression on gefitinib-treated cells,"[10]; IEC-18, curcumin 5 μM, BIRB 796 10 nM",significantly decrease the active-p38 expression
COc1cc(/C=C/C(O)=C/C(=O)/C=C/c2ccc(O)cc2)ccc1O [LL-18],protection against gefitinib-induced intestinal cell death (FIG. 10),IEC-18 cells,protective effect to reduce gefitinib-induced intestinal cell death

# Source: patent US20110224205A1 (NATIONAL TAIWAN UNIVERSITY, priority 2010, published 2011)
